This assay concerns cisplatin-induced emesis. Put plainly: Duration of action in cisplatin-treated dogs. The assay is classed as in vivo. Conditions: 0.04 mg/kg IV. The procedure:
Mean numbers of episodes were computed and the statistical significance of differences between treatment groups were determined with Dunnett's t test. Solutions of palonosetron and comparator drugs (ondansetron and granisetron) were prepared in distilled water. Vehicle control groups received distilled water.

For the compound `CN1C2CCCC1CC(NC(=O)c1nn(C)c3ccccc13)C2` (centres unmarked) [Granisetron], the “antiemetic effect in duration of action experiments” value (1 to 12 hours before cisplatin) is “without antiemetic effect”. The “Emetic Episodes (mean ± SD)” value reads like this: (1 hr pre-cisplatin 3.0 mg/kg IV) 12.33 ± 4.32; (2 hr pre-cisplatin 3.0 mg/kg IV) 9.67 ± 4.46; (4 hr pre-cisplatin 3.0 mg/kg IV) 13.83 ± 7.25; (6 hr pre-cisplatin 3.0 mg/kg IV) 21.33 ± 9.54; (8 hr pre-cisplatin 3.0 mg/kg IV) 14.67 ± 8.69; (10 hr pre-cisplatin 3.0 mg/kg IV) 23.00 ± 5.87. Also, the “Emetic Episodes (mean ± SD)” value (12 hr pre-cisplatin 3.0 mg/kg IV) was 15.67 ± 6.28.
